Data set [1] deals with MDA-MB-231. As to the kind of experiment: Antimigratory activity in human MDA-MB-231 cells assessed as inhibition of cell motility after 24 hrs by microscopic analysis. It is filed as functional, cell-based. Conditions: MDA-MB-231, 24 h.
The test system of data set [2] is MDA-MB-231. As to the kind of experiment: Antimigratory activity in human MDA-MB-231 cells assessed as wound diameter at 5 uM measured after 24 hrs by microscopic analysis. In kind it is functional, cell-based.
Data set [3] relates to Chorioallantoic membrane. As to the kind of experiment: Antiangiogenic activity in Leghorn chicken fertilized egg chorioallantoic membrane assessed as reduction in number of blood vessels at 4 ug measured after 4 days by microscopic analysis. It is filed as functional, tissue-based. Conditions: Gallus gallus.
Data set [4] deals with MCF7. As to the kind of experiment: Inhibition of anchorage-independent colony formation in human MCF7 cells at 5 uM measured upto 21 days by soft agar colony formation assay. In kind it is functional, cell-based.
For data set [5], the system named is MDA-MB-468. Kind of data set: Inhibition of anchorage-independent colony formation in human MDA-MB-468 cells at 5 uM measured upto 21 days by soft agar colony formation assay. In kind it is functional, cell-based.
In data set [6] the test system is MDA-MB-231. Kind of data set: Inhibition of anchorage-independent colony formation in human MDA-MB-231 cells at 5 uM measured upto 21 days by soft agar colony formation assay. It is filed as functional, cell-based.
In data set [7] the test system is MCF7. As to the kind of experiment: Antiproliferative activity against human MCF7 cells assessed as inhibition of cell growth measured after 48 hrs by microplate reader analysis. It is filed as functional, cell-based. Conditions: MCF7, 48 h.
The subject of data set [8] is MCF7. Kind of data set: Growth inhibition in human MCF7 cells at 10 uM after 48 hrs by MTT assay. It is filed as functional, cell-based.
A short description of data set [9]: Selectivity index, ratio of LD50 for E6/E7 immortalized human HNME cells to IC50 for human MDA-MB-468 cells.
Data set [10] relates to MDA-MB-468. As to the kind of experiment: Cell cycle arrest in human MDA-MB-468 cells assessed as accumulation at S phase at 10 uM measured after 48 hrs by propidium iodide staining-based flow cytometric analysis relative to control. In kind it is functional.
The subject of data set [11] is MDA-MB-231. Kind of data set: Cell cycle arrest in human MDA-MB-231 cells assessed as accumulation at S phase at 10 uM measured after 48 hrs by propidium iodide staining-based flow cytometric analysis relative to control. It is filed as functional.
Data set [12] concerns MDA-MB-231. Kind of data set: Induction of morphological changes in human MDA-MB-231 cells assessed as mesenchymal-epithelial transition at 10 uM by inverted microscopic analysis. It is filed as functional, cell-based.
The subject of data set [13] is MDA-MB-231. Kind of data set: Growth inhibition in human MDA-MB-231 cells at 10 uM after 48 hrs by MTT assay. In kind it is functional, cell-based. (Formazan colour is commonly taken as a measure of viable cells.)
The test system of data set [14] is MCF7. Kind of data set: Antiinvasive activity in human MCF7 cells assessed as reduction in 10% FBS-induced cell invasion at 10 uM by crystal violet staining based matrigel assay relative to control. It is filed as functional.
In data set [15] the test system is MDA-MB-468. Kind of data set: Antiinvasive activity in human MDA-MB-468 cells assessed as reduction in 10% FBS-induced cell invasion at 10 uM by crystal violet staining based matrigel assay relative to control. It is filed as functional.
The test system of data set [16] is MCF7. As to the kind of experiment: Induction of morphological changes in human MCF7 cells assessed as mesenchymal-epithelial transition at 10 uM by inverted microscopic analysis. It is filed as functional, cell-based.
Data set [17] has as its system MDA-MB-231. Kind of data set: Antiproliferative activity against human MDA-MB-231 cells assessed as inhibition of cell growth measured after 48 hrs by microplate reader analysis. In kind it is functional, cell-based. Conditions: MDA-MB-231, 48 h.
Data set [18] is described as follows: Cytotoxicity against E6/E7 immortalized human HNME cells assessed as inhibition of cell growth measured after 48 hrs by microplate reader analysis. Conditions: read-out: LD50. It is filed as cell-based.
For data set [19], the system named is MDA-MB-468. Kind of data set: Antiproliferative activity against human MDA-MB-468 cells assessed as inhibition of cell growth measured after 48 hrs by microplate reader analysis. Conditions: MDA-MB-468, 48 h. In kind it is functional, cell-based.
The subject of data set [20] is MDA-MB-468. Kind of data set: Induction of morphological changes in human MDA-MB-468 cells assessed as mesenchymal-epithelial transition at 10 uM by inverted microscopic analysis. It is filed as functional, cell-based.
Data set [21] is described as follows: Selectivity index, ratio of LD50 for E6/E7 immortalized human HNME cells to IC50 for human MDA-MB-231 cells.
Data set [22] can be described thus: Selectivity index, ratio of LD50 for E6/E7 immortalized human HNME cells to IC50 for human MCF7 cells.
Data set [23] relates to MDA-MB-231. As to the kind of experiment: Antiinvasive activity in human MDA-MB-231 cells assessed as reduction in 10% FBS-induced cell invasion at 10 uM by crystal violet staining based matrigel assay relative to control. It is filed as functional. Details: scale not given: the % may be the effect or the level left.

One may read the IC50 as the concentration needed to halve the response being measured.

Activity calls are given as the source filed them. The calls are words filed in the database; no cut-off is given here.

Take `COc1ccccc1C(=O)/C=C/c1ccc(N(CCCl)CCCl)cc1`: the IC50 in data set [1] stood at 2.86 µM. Besides, the result in data set [2] was Active.
For `CSc1ccc(C(=O)/C=C/c2ccc(N3CCOCC3)cc2)cc1`, the outcome in data set [3] and in [2] was Active. The IC50 in [1] came to 4.8 µM.
In the case of `CC(=O)O[C@H]1C(=O)[C@@]2(C)[C@H]([C@H](OC(=O)c3ccccc3)[C@]3(O)C[C@H](OC(=O)[C@H](O)[C@@H](NC(=O)c4ccccc4)c4ccccc4)C(C)=C1C3(C)C)[C@]1(OC(C)=O)CO[C@@H]1C[C@@H]2O` [PACLITAXEL], the “colony formation inhibition (activity call)” value in data set [4] was “Active”. In data set [1], the IC50 turned out to be 2.01 µM. Further, in [2], the result was Active. In data set [5], the “colony formation inhibition (active/inactive)” value was “Active”. Also, the inhibition entry in [6] was “Active”.
On to `CS(=O)(=O)c1ccc(C(=O)/C=C/c2ccc(N(CCCl)CCCl)cc2)cc1`, for which the IC50 in [7] was found to be 14.1 µM; in data set [1], 6.14 µM; in [17], 7.44 µM; in data set [19], 13.3 µM. The outcome in data set [3], in [2], in data set [12], in data set [14], in data set [15] and in [16] was Active. In addition, in [20], the outcome was Active. Also, the “colony formation inhibition (activity call)” value in data set [4] was “Active”. The “growth inhibition (GI)” value in [8] and in [13] was “Active” in each case. The “Ratio LD50/IC50” value was found to be 2.21 in data set [9], 3.95 in [21] and 2.08 in data set [22]. Besides, the results for the Activity in data set [10], in [11] and in data set [23] were 46.8%, 28.7% and 80%, respectively. Moreover, in data set [5], the “colony formation inhibition (active/inactive)” value was “Active”. The CC50 at 48 h in data set [18] is 29.4 µM. In data set [6], the inhibition result is “Active”.
`COc1cccc(C(=O)/C=C/c2ccc(N3CCCC3)cc2)c1`: in data set [1], the IC50 came out at 1.99 µM. Besides, the outcome in data set [2] was Active.
For the compound `O=C(/C=C/c1ccc(N2CCCC2)cc1)c1ccc2c(c1)OCO2`, the IC50 in data set [1] stood at 5.71 µM. For the same compound, the result in data set [2] was Active.
On to `COc1cc2c(c(OC)c1OC)-c1ccc(OC)c(=O)cc1[C@@H](NC(C)=O)CC2`, for which the inhibition entry in data set [4] and in [6] was “Active” each time. Further, the result in data set [2] was Active. In addition, in [5], the “colony formation inhibition (active/inactive)” value is “Active”.

For the origin of these results see ChEMBL document CHEMBL4334533, “Design, synthesis, and validation of novel nitrogen-based chalcone analogs against triple negative breast cancer” (Eur J Med Chem, 2020).
